Source: US10206394B2, “Herbicidal compounds” (Syngenta Participations AG, priority 2014, dated 2019)
Read-outs that look alike come from different tables or passages of the source.

Key:
Assay in all cases: Glasshouse assay for herbicidal activity (pre- and post-emergence), percentage phytotoxicity
Format in all cases: in vivo
[1] = system: Alopecurus myosuroides (ALOMY); conditions: Alopecurus myosuroides
Description: (§1) Test—Glasshouse Assay for Herbicidal Activity
(§2) Seeds of a variety of monocotyledonous and dicotyledonous test plants are sown in standard soil in pots. The plants are cultivated for one day (for pre-emergence (PRE)) or for about 12 days (for post-emergence (POST)) under controlled conditions in a glasshouse (warm climate species at 24/18° C., cool climate species at 20/16° C., both at day/night; 16 hours light; 65% humidity).
(§3) The test plants are then grown on, in a glasshouse (greenhouse) under controlled conditions (warm climate species at 24/18° C., cool climate species at 20/16° C., both at day/night; 16 hours light; 65% humidity) and are watered twice daily. 15 days after application of the test herbicide (15 DAA) (for post-emergence), and 20 days after application of the test herbicide (20 DAA) (for pre-emergence), the test plants are evaluated visually, and an assessed percentage phytotoxicity score is given for each herbicidal application on each plant species (with 100%=total damage to plant; 0%=no damage to plant).
(§4) The plant species tested are as follows: Alopecurus myosuroides (ALOMY), Avena fatua (AVEFA), Lolium perenne (LOLPE), Echinochloa crus-galli (ECHCG).

Avena fatua (AVEFA) = conditions: Avena fatua
Description: as §1, §2, §3, §4

[2] = system: Echinochloa crus-galli (ECHCG); conditions: Echinochloa crus-galli
Description: as §1, §2, §3, §4

Lolium perenne (LOLPE) = conditions: Lolium perenne
Description: as §1, §2, §3, §4

[3] = post-emergence, 360 h, Rate 250 g/ha, post-emergence, assessed visually 15 DAA, 100%=total damage, 0%=no damage, read-out: Post-emergence herbicidal activity (percentage phytotoxicity) ALOMY POST
[4] = pre-emergence, 480 h, Rate 250 g/ha, pre-emergence, assessed visually 20 DAA, 100%=total damage, 0%=no damage, read-out: Pre-emergence herbicidal activity (percentage phytotoxicity) ALOMY PRE
[5] = post-emergence, 360 h, Rate 250 g/ha, post-emergence, assessed visually 15 DAA, 100%=total damage, 0%=no damage, read-out: Post-emergence herbicidal activity (percentage phytotoxicity) AVEFA POST
[6] = pre-emergence, 480 h, Rate 250 g/ha, pre-emergence, assessed visually 20 DAA, 100%=total damage, 0%=no damage, read-out: Pre-emergence herbicidal activity (percentage phytotoxicity) AVEFA PRE
[7] = post-emergence, 360 h, Rate 250 g/ha, post-emergence, assessed visually 15 DAA, 100%=total damage, 0%=no damage, read-out: Post-emergence herbicidal activity (percentage phytotoxicity) ECHCG POST
[8] = pre-emergence, 480 h, Rate 250 g/ha, pre-emergence, assessed visually 20 DAA, 100%=total damage, 0%=no damage, read-out: Pre-emergence herbicidal activity (percentage phytotoxicity) ECHCG PRE
[9] = post-emergence, 360 h, Rate 250 g/ha, post-emergence, assessed visually 15 DAA, 100%=total damage, 0%=no damage, read-out: Post-emergence herbicidal activity (percentage phytotoxicity) LOLPE POST
[10] = pre-emergence, 480 h, Rate 250 g/ha, pre-emergence, assessed visually 20 DAA, 100%=total damage, 0%=no damage, read-out: Pre-emergence herbicidal activity (percentage phytotoxicity) LOLPE PRE
[11] = post-emergence, 360 h, POST-emergence, rate 250 g/ha, visual score 15 DAA (100%=total damage, 0%=no damage), read-out: Post-emergence herbicidal activity (percentage phytotoxicity) ALOMY POST
[12] = pre-emergence, 480 h, PRE-emergence, rate 250 g/ha, visual score 20 DAA (100%=total damage, 0%=no damage), read-out: Pre-emergence herbicidal activity (percentage phytotoxicity) ALOMY PRE
[13] = post-emergence, 360 h, POST-emergence, rate 250 g/ha, visual score 15 DAA (100%=total damage, 0%=no damage), read-out: Post-emergence herbicidal activity (percentage phytotoxicity) AVEFA POST
[14] = pre-emergence, 480 h, PRE-emergence, rate 250 g/ha, visual score 20 DAA (100%=total damage, 0%=no damage), read-out: Pre-emergence herbicidal activity (percentage phytotoxicity) AVEFA PRE
[15] = post-emergence, 360 h, POST-emergence, rate 250 g/ha, visual score 15 DAA (100%=total damage, 0%=no damage), read-out: Post-emergence herbicidal activity (percentage phytotoxicity) ECHCG POST
[16] = pre-emergence, 480 h, PRE-emergence, rate 250 g/ha, visual score 20 DAA (100%=total damage, 0%=no damage), read-out: Pre-emergence herbicidal activity (percentage phytotoxicity) ECHCG PRE
[17] = post-emergence, 360 h, POST-emergence, rate 250 g/ha, visual score 15 DAA (100%=total damage, 0%=no damage), read-out: Post-emergence herbicidal activity (percentage phytotoxicity) LOLPE POST
[18] = pre-emergence, 480 h, PRE-emergence, rate 250 g/ha, visual score 20 DAA (100%=total damage, 0%=no damage), read-out: Pre-emergence herbicidal activity (percentage phytotoxicity) LOLPE PRE
[19] = post-emergence, 360 h, Rate 250 g/ha, post-emergence, visual assessment 15 DAA, 100%=total damage, 0%=no damage, read-out: Post-emergence herbicidal activity (percentage phytotoxicity) ALOMY POST
[20] = pre-emergence, 480 h, Rate 250 g/ha, pre-emergence, visual assessment 20 DAA, 100%=total damage, 0%=no damage, read-out: Pre-emergence herbicidal activity (percentage phytotoxicity) ALOMY PRE
[21] = post-emergence, 360 h, Rate 250 g/ha, post-emergence, visual assessment 15 DAA, 100%=total damage, 0%=no damage, read-out: Post-emergence herbicidal activity (percentage phytotoxicity) AVEFA POST
[22] = pre-emergence, 480 h, Rate 250 g/ha, pre-emergence, visual assessment 20 DAA, 100%=total damage, 0%=no damage, read-out: Pre-emergence herbicidal activity (percentage phytotoxicity) AVEFA PRE
[23] = post-emergence, 360 h, Rate 250 g/ha, post-emergence, visual assessment 15 DAA, 100%=total damage, 0%=no damage, read-out: Post-emergence herbicidal activity (percentage phytotoxicity) ECHCG POST
[24] = pre-emergence, 480 h, Rate 250 g/ha, pre-emergence, visual assessment 20 DAA, 100%=total damage, 0%=no damage, read-out: Pre-emergence herbicidal activity (percentage phytotoxicity) ECHCG PRE
[25] = post-emergence, 360 h, Rate 250 g/ha, post-emergence, visual assessment 15 DAA, 100%=total damage, 0%=no damage, read-out: Post-emergence herbicidal activity (percentage phytotoxicity) LOLPE POST
[26] = pre-emergence, 480 h, Rate 250 g/ha, pre-emergence, visual assessment 20 DAA, 100%=total damage, 0%=no damage, read-out: Pre-emergence herbicidal activity (percentage phytotoxicity) LOLPE PRE

Row | Compound | pest or weed control at 250 g/ha [1, 11] | pest or weed control at 250 g/ha [1, 12] | pest or weed control at 250 g/ha (Avena fatua (AVEFA); [13]) | pest or weed control at 250 g/ha (Avena fatua (AVEFA); [14]) | pest or weed control at 250 g/ha [2, 15] | pest or weed control at 250 g/ha [2, 16] | pest or weed control at 250 g/ha (Lolium perenne (LOLPE); [17]) | pest or weed control at 250 g/ha (Lolium perenne (LOLPE); [18]) | further results
1 | Cc1cc(Br)cc(C)c1C1C(=O)CC(CC(=O)NCC2CC2(Cl)Cl)C1=O (stereo not shown) [Compound B141] |  |  |  |  |  |  |  |  | pest or weed control at 250 g/ha ([1]; post-emergence, 360 h, 250 g/ha, post-emergence, 15 DAA, visual assessment (100%=total damage, 0%=no damage), read-out: Post-emergence herbicidal activity (percentage phytotoxicity) ALOMY POST): 80%; pest or weed control at 250 g/ha ([1]; pre-emergence, 480 h, 250 g/ha, pre-emergence, 20 DAA, visual assessment (100%=total damage, 0%=no damage), read-out: Pre-emergence herbicidal activity (percentage phytotoxicity) ALOMY PRE): 90%; pest or weed control at 250 g/ha (Avena fatua (AVEFA); post-emergence, 360 h, 250 g/ha, post-emergence, 15 DAA, visual assessment (100%=total damage, 0%=no damage), read-out: Post-emergence herbicidal activity (percentage phytotoxicity) AVEFA POST): 90%; pest or weed control at 250 g/ha (Avena fatua (AVEFA); pre-emergence, 480 h, 250 g/ha, pre-emergence, 20 DAA, visual assessment (100%=total damage, 0%=no damage), read-out: Pre-emergence herbicidal activity (percentage phytotoxicity) AVEFA PRE): 60%; pest or weed control at 250 g/ha ([2]; post-emergence, 360 h, 250 g/ha, post-emergence, 15 DAA, visual assessment (100%=total damage, 0%=no damage), read-out: Post-emergence herbicidal activity (percentage phytotoxicity) ECHCG POST): 80%; pest or weed control at 250 g/ha ([2]; pre-emergence, 480 h, 250 g/ha, pre-emergence, 20 DAA, visual assessment (100%=total damage, 0%=no damage), read-out: Pre-emergence herbicidal activity (percentage phytotoxicity) ECHCG PRE): 70%; pest or weed control at 250 g/ha (Lolium perenne (LOLPE); post-emergence, 360 h, 250 g/ha, post-emergence, 15 DAA, visual assessment (100%=total damage, 0%=no damage), read-out: Post-emergence herbicidal activity (percentage phytotoxicity) LOLPE POST): 80%; pest or weed control at 250 g/ha (Lolium perenne (LOLPE); pre-emergence, 480 h, 250 g/ha, pre-emergence, 20 DAA, visual assessment (100%=total damage, 0%=no damage), read-out: Pre-emergence herbicidal activity (percentage phytotoxicity) LOLPE PRE): 80%
2 | Cc1cc(C)c(C2C(=O)CC(CC(=O)NCc3ccccc3F)C2=O)c(C)c1 (stereo not shown) [Compound A110] |  |  |  |  |  |  |  |  | pest or weed control at 250 g/ha [1, 3]: 60%; pest or weed control at 250 g/ha [1, 4]: 70%; pest or weed control at 250 g/ha (Avena fatua (AVEFA); [5]): 70%; pest or weed control at 250 g/ha (Avena fatua (AVEFA); [6]): 50%; pest or weed control at 250 g/ha [2, 7]: 80%; pest or weed control at 250 g/ha [2, 8]: 90%; pest or weed control at 250 g/ha (Lolium perenne (LOLPE); [9]): 80%; pest or weed control at 250 g/ha (Lolium perenne (LOLPE); [10]): 100%
3 | CCc1cc(C)cc(C)c1C1C(=O)CC(CC(=O)N2CCOCC2)C1=O (stereo not shown) [Compound B169] | 100% | 100% | 100% | 100% | 100% | 100% | 100% | 100% | 
4 | Cc1cc(-c2ncc(Cl)cn2)cc(C)c1C1C(=O)CC(CC(=O)NCC2CC2)C1=O (stereo not shown) [Compound B342] |  |  |  |  |  |  |  |  | pest or weed control at 250 g/ha [1, 19]: 100%; pest or weed control at 250 g/ha [1, 20]: 100%; pest or weed control at 250 g/ha (Avena fatua (AVEFA); [21]): 100%; pest or weed control at 250 g/ha (Avena fatua (AVEFA); [22]): 90%; pest or weed control at 250 g/ha [2, 23]: 100%; pest or weed control at 250 g/ha [2, 24]: 100%; pest or weed control at 250 g/ha (Lolium perenne (LOLPE); [25]): 100%; pest or weed control at 250 g/ha (Lolium perenne (LOLPE); [26]): 100%
5 | Cc1cc(-c2ncc(F)cc2F)cc(C)c1C1C(=O)CC(CC(=O)NC/C=C/Cl)C1=O (stereo not shown) [Compound B290] | 100% | 100% | 100% | 100% | 100% | 100% | 100% | 100% | 
6 | COc1ccccc1CNC(=O)CC1CC(=O)C(c2c(C)cc(C)cc2C)C1=O (stereo not shown) [Compound A90] |  |  |  |  |  |  |  |  | pest or weed control at 250 g/ha [1, 3]: 0%; pest or weed control at 250 g/ha [1, 4]: 0%; pest or weed control at 250 g/ha (Avena fatua (AVEFA); [5]): 0%; pest or weed control at 250 g/ha (Avena fatua (AVEFA); [6]): 0%; pest or weed control at 250 g/ha [2, 7]: 80%; pest or weed control at 250 g/ha [2, 8]: 40%; pest or weed control at 250 g/ha (Lolium perenne (LOLPE); [9]): 70%; pest or weed control at 250 g/ha (Lolium perenne (LOLPE); [10]): 60%
7 | Cc1cc(-c2ncc(C#N)cn2)cc(C)c1C1C(=O)CC(CC(=O)N2CCOCC2)C1=O (stereo not shown) [Compound B288] | 100% | 80% | 90% | 80% | 100% | 90% | 90% | 90% | 
8 | Cc1cc(-c2ncc(Br)cn2)cc(C)c1C1C(=O)CC(CC(=O)N2CCOCC2)C1=O (stereo not shown) [Compound B285] | 100% | 90% | 100% | 90% | 100% | 100% | 100% | 100% | 
9 | Cc1cc(-c2ncc(F)cn2)cc(C)c1C1C(=O)CC(CC(=O)NCc2ccccc2)C1=O (stereo not shown) [Compound B263] | 100% | 90% | 100% | 80% | 100% | 100% | 100% | 80% | 
10 | C#CC(C)(C)NC(=O)CC1CC(=O)C(c2c(C)cc(-c3ccc(Cl)cn3)cc2C)C1=O (stereo not shown) [Compound B363] |  |  |  |  |  |  |  |  | pest or weed control at 250 g/ha [1, 19]: 90%; pest or weed control at 250 g/ha [1, 20]: 100%; pest or weed control at 250 g/ha (Avena fatua (AVEFA); [21]): 100%; pest or weed control at 250 g/ha (Avena fatua (AVEFA); [22]): 90%; pest or weed control at 250 g/ha [2, 23]: 100%; pest or weed control at 250 g/ha [2, 24]: 100%; pest or weed control at 250 g/ha (Lolium perenne (LOLPE); [25]): 90%; pest or weed control at 250 g/ha (Lolium perenne (LOLPE); [26]): 100%
11 | C/C=C/c1cc(C)c(C2C(=O)CC(CC(=O)NCc3ccccc3)C2=O)c(CC)c1 (stereo not shown) [Compound B190] | 70% | 60% | 90% | 40% | 100% | 80% | 80% | 70% | 
